Data reported in paper PMC12794336, “Unconventional chalcogen-containing azolylidene metal complexes as potential anticancer therapeutics” (Chemical Science, 2025).

How the values were obtained:
[1] = tested on: A2780 ovarian cancer cell line; assay: Cytotoxicity, PrestoBlue assay, A2780; format: cell-based, human; details: 72 h, PrestoBlue; read-out: IC50 (µM) after 72 h, A2780
Method: (§1) counterpart, A2780cis, were procured from the European Collection of Cell
(§2) (ThermoFisher, USA) base medium supplemented with 10% Foetal Bovine
(§3) Serum (FBS; Sigma, Germany) and 1% of Penicillin-Streptomycin
(§4) (ThermoFisher, USA). Additionally, A2780cis cell line was cultured in the
(§5) drug. The human embryonic kidney cell line, HEK293T, and HeLa cell line were
(§6) obtained from American Type Culture Collection (ATCC, USA) and were cultured
(§7) in DMEM GlutaMAX (ThermoFisher, USA) base medium, supplemented with
(§8) 10% FBS and 1% of Penicillin-Streptomycin. All cell lines were maintained in a
(§9) humidified incubator at37 °C and 5% CO2.
(§10) 4.2. Cytotoxicity studies
(§11) cells/mL (A2780cis and HEK293T) was dispensed into flat bottom 96-well plates
(§12) and allowed to attach overnight. On the next day, 10 mM stock solutions of the
(§13) tested compounds were prepared in DMSO, then diluted with media to the final
(§14) concentration range of 0 - 100 µM and applied to the cells; 0.1% DMSO final
(§15) solution and 10 µM final concentration gambogic acid were used as negative and
(§16) positive controls, respectively. After 72 h incubation in a humidified incubator
(§17) under 5% CO2 at 37 °C, PrestoBlue™ cell viability reagent (Cat. No. A13262,
(§18) Invitrogen, USA) was added to cultures at a 1:10 ratio according to the
(§19) manufacturer instructions, and samples were incubated for 1.5 h. Fluorescence
(§20) at 560/590 nm was detected with Tecan Infinite 500 microplate reader (Tecan,
(§21) Switzerland). Three wells were assessed for each concentration of the tested
(§22) compounds and three independent experiments were performed. Non-linear
(§23) regression and IC50 value calculation were performed in GraphPad Prism 9 using
(§24) the build-in function “Dose response- Inhibition”.

[2] = tested on: A2780cis cells with acquired resistance to cisplatin; assay: Cytotoxicity, PrestoBlue assay, A2780cis; format: cell-based, human; details: 72 h, PrestoBlue; read-out: IC50 (µM) after 72 h, A2780cis
Method: as §1, §2, §3, §4, §5, §6, §7, §8, §9, §10, §11, §12, §13, §14, §15, §16, §17, §18, §19, §20, §21, §22, §23, §24

[3] = tested on: non-cancerous human embryonic kidney HEK293T cells; assay: Cytotoxicity, PrestoBlue assay, HEK293T; format: cell-based; details: 72 h, PrestoBlue; read-out: IC50 (µM) after 72 h, HEK293T
Method: as §1, §2, §3, §4, §5, §6, §7, §8, §9, §10, §11, §12, §13, §14, §15, §16, §17, §18, §19, §20, §21, §22, §23, §24

[4] = tested on: A2780, A2780cis and HEK293T cell lines; assay: Cytotoxicity stated jointly for all three cell lines; format: cell-based, human; details: HEK293T together, 72 h
Method: as §1, §2, §3, §4, §5, §6, §7, §8, §9, §10, §11, §12, §13, §14, §15, §16
under 5% CO2 at 37 °C, PrestoBlue™ cell viability reagent (Cat. No. A13262, […]
as §19, §20
Switzerland). Three wells were assessed for each concentration of the tested […]

[5] = n-octanol/water; cited from earlier work
[6] = set-up: method as in PMID 21082862; details: cell line not stated; read-out: Cytotoxicity reported in the literature; cited from earlier work

SMILES | IC50 [1] | IC50 [2] | IC50 [3] | IC50 [4] | logPOW [5] | IC50 [6]
Cc1ccc(C(C)C)cc1.[Cl][Ru]([Cl])[PH]12CN3CN(CN(C3)C1)C2 [RAPTA-C, reference compound] | > 100 µM | > 100 µM | > 100 µM | > 100 µM | −1.8 (ref. [64]) | 
CCn1[c]([Au-][Cl])[n+](CC)c2ccccc21 [same complex bearing a chlorido ligand] |  |  |  |  |  | 6.4 ± 2 µM
